From patent publication US10667517B2, “2-(Het)aryl-substituted fused heterocycle derivatives as pesticides” (BAYER CROPSCIENCE AKTIENGESELLSCHSAFT, priority 2015, dated 2020)

What was measured:
Phaedon cochleariae = Phaedon cochleariae - spray test; assay type: in vivo; settings: application rate 500 g/ha, mustard beetle larvae on Chinese cabbage leaf discs, after 7 days; for pest or weed control at 500 g/ha: Phaedon cochleariae, foliar, 168 h, read-out: efficacy
Protocol: Phaedon cochleariae—Spray Test
(§1) • Solvent: 78.0 parts by weight of acetone • 1.5 parts by weight of dimethylformamide • Emulsifier: alkylaryl polyglycol ether
(§2) To produce a suitable active compound preparation, 1 part by weight of active compound is dissolved with the stated parts by weight of solvent and made up with water containing an emulsifier concentration of 1000 ppm until the desired concentration is attained. To produce further test concentrations, the preparation is diluted with emulsifier-containing water.
After 7 days, the efficacy in % is determined. 100% means that all the beetle larvae have been killed; 0% means that no beetle larvae have been killed.

[1] = log P (neutral), HPLC on reversed-phase column (C 18), LC-MS neutral range; assay type: physicochemical; settings: pH 7.8, ammonium hydrogencarbonate/acetonitrile; for chromatographic logP: reversed-phase HPLC column (C 18), pH 7.8, HPLC reversed-phase C 18, 55° C.; for log P (neutral): HPLC reversed-phase C 18, 55° C.
Protocol: Temperature: 55° C. […] Called log P (neutral) in the table.

Spodoptera frugiperda = Spodoptera frugiperda - spray test; assay type: in vivo; settings: armyworm caterpillars on maize leaf discs, after 7 days
Protocol: Spodoptera frugiperda—Spray Test
as §1, §2
Leaf discs of maize (Zea mays) are sprayed with an active compound preparation of the desired concentration and, after drying, populated with caterpillars of the armyworm (Spodoptera frugiperda).
After 7 days, the efficacy in % is determined. 100% means that all the caterpillars have been killed; 0% means that no caterpillars have been killed.

Myzus persicae = Myzus persicae - spray test; assay type: in vivo; settings: all stages of green peach aphid on Chinese cabbage leaf discs, after 5-6 days
Protocol: Myzus persicae—Spray Test
• Solvent: 78 parts by weight of acetone • 1.5 parts by weight of dimethylformamide • Emulsifier: alkylaryl polyglycol ether
as §2
Discs of Chinese cabbage leaves (Brassica pekinensis) infested by all stages of the green peach aphid (Myzus persicae) are sprayed with an active compound preparation of the desired concentration.
After 5-6 days, the efficacy in % is determined. 100% means that all the aphids have been killed; 0% means that no aphids have been killed.

Lucilia cuprina = Lucilia cuprina test; assay type: in vivo; settings: application rate 100 ppm; L1 larvae in minced horsemeat; after 2 days
Protocol: Lucilia cuprina Test • Solvent: dimethyl sulphoxide To produce a suitable active compound preparation, 10 mg of active compound are mixed with 0.5 ml of dimethyl sulphoxide, and the concentrate is diluted with water to the desired concentration. About 20 L1 larvae of the Australian sheep blowfly (Lucilia cuprina) are transferred into a test vessel containing minced horsemeat and the active compound preparation of the desired concentration. After 2 days, the kill in % is determined. 100% means that all the larvae have been killed; 0% means that no larvae have been killed.

Ctenocephalides felis [2] = experiment: Ctenocephalides felis - oral test; assay type: in vivo; settings: application rate 100 ppm in citrated cattle blood; adult cat fleas; after 2 days
Protocol: Ctenocephalides felis—Oral Test • Solvent: dimethyl sulphoxide To produce a suitable active compound preparation, 10 mg of active compound are mixed with 0.5 ml of dimethyl sulphoxide. Dilution with citrated cattle blood gives the desired concentration. About 20 unfed adult cat fleas (Ctenocephalides felis) are placed into a chamber which is closed at the top and bottom with gauze. A metal cylinder whose bottom end is closed with parafilm is placed onto the chamber. The cylinder contains the blood/active compound preparation, which can be imbibed by the fleas through the parafilm membrane. After 2 days, the kill in % is determined. 100% means that all of the fleas have been killed; 0% means that none of the fleas have been killed.

Ctenocephalides felis [3] = experiment: Ctenocephalides felis - in vitro contact tests with adult cat fleas; assay type: in vivo; settings: application rate 5 μg/cm^2 (500 g/ha); adult cat fleas in coated tubes; after 48 h; dead or moribund
Protocol: Ctenocephalides felis—In Vitro Contact Tests with Adult Cat Fleas
For the coating of the test tubes, 9 mg of active compound are first dissolved in 1 ml of acetone p.a. and then diluted to the desired concentration with acetone p.a. 250 μl of the solution are distributed homogeneously on the inner walls and the base of a 25 ml test tube by turning and rocking on an orbital shaker (rocking rotation at 30 rpm for 2 h). With 900 ppm active compound solution and internal surface 44.7 cm^2, given homogeneous distribution, an area-based dose of 5 μg/cm^2 is achieved.
After the solvent has evaporated off, the tubes are populated with 5-10 adult cat fleas (Ctenocephalides felis), sealed with a perforated plastic lid and incubated in a horizontal position at room temperature and ambient humidity. After 48 h, efficacy is determined. To this end, the test tubes are stood upright and the fleas are knocked to the base of the tube. Fleas which remain motionless at the base or move in an uncoordinated manner are considered to be dead or moribund.
100% efficacy means that all the fleas were dead or moribund. 0% efficacy means that no fleas were harmed.

[4] = log P (acidic), HPLC on reversed-phase column (C 18), LC-MS acidic range; assay type: physicochemical; settings: HPLC reversed-phase C 18, 55° C., pH 2.7, 0.1% formic acid/acetonitrile
Source text: Called log P (HCOOH) in the table.

Row | chromatographic logP [1] | log P (neutral) [1] | Structure (SMILES) | efficacy (Spodoptera frugiperda; application rate 500 g/ha) [%] | efficacy (Myzus persicae; application rate 500 g/ha) [%] | efficacy (Phaedon cochleariae) [%] | further results
1 | 3.8 | – | CCSc1ccc(Cl)nc1-c1nc2cc3c(cc2n1C)OC(F)(F)O3 [XI-3, 6-(6-Chloro-3-ethylsulphanyl-2-pyridyl)-2,2-difluoro-7-methyl-[1,3]dioxolo[4,5-f]benzimidazole] | – | – | – | –
2 | 2.78 | – | CCSc1ccc(F)nc1-c1cn2cnc(C(F)(F)F)cc2n1 [XI-4, 2-[3-(Ethylsulphanyl)-6-fluoropyridin-2-yl]-7-(trifluoromethyl)imidazo[1,2-c]pyrimidine] | – | – | – | –
3 | 4.16 | – | CCSc1ccc(Br)nc1-c1nc2cc(C(F)(F)F)cnc2o1 [XI-5, 2-[6-Bromo-3-(ethylsulphanyl)pyridin-2-yl]-6-(trifluoromethyl)[1,3]oxazolo[5,4-b]pyridine] | – | – | – | –
4 | 3.28 | – | CCSc1ccc(Cl)nc1-c1nc2cc(C(F)(F)F)nnc2n1C [XI-6, 6-(6-Chloro-3-ethylsulphanyl-2-pyridyl)-7-methyl-3-(trifluoromethyl)imidazo[4,5-c]pyridazine] | – | – | – | –
5 | 2.96 | – | CCS(=O)(=O)c1ccc(F)nc1-c1nc2cc(C(F)(F)F)ccc2n1C [XIII-1, 2-[3-(Ethylsulphonyl)-6-fluoropyridin-2-yl]-1-methyl-5-(trifluoromethyl)-1H-benzimidazole] | – | – | – | –
6 | 2.8 | – | CCS(=O)(=O)c1ccc(F)nc1-c1nc2cc(C(F)(F)F)cnc2n1C [XIII-2, 2-[3-(Ethylsulphonyl)-6-fluoropyridin-2-yl]-3-methyl-6-(trifluoromethyl)-3H-imidazo[4,5-b]pyridine] | – | – | – | –
7 | 3.2 | – | CCS(=O)(=O)c1ccc(Cl)nc1-c1nc2cc3c(cc2n1C)OC(F)(F)O3 [XIII-3, 6-(6-Chloro-3-ethylsulphonyl-2-pyridyl)-2,2-difluoro-7-methyl-[1,3]dioxolo[4,5-f]benzimidazole] | – | – | – | –
8 | 2.6 | – | CCS(=O)(=O)c1ccc(Cl)nc1-c1nc2cc(C(F)(F)F)nnc2n1C [XIII-5, 6-(6-Chloro-3-ethylsulphonyl-2-pyridyl)-7-methyl-3-(trifluoromethyl)imidazo[4,5-c]pyridazine] | – | – | – | –

More lines, now with the values behind:

Row | Structure (SMILES) | chromatographic logP [1] | log P (neutral) [1] | efficacy (Spodoptera frugiperda; application rate 500 g/ha) [%] | efficacy (Myzus persicae; application rate 500 g/ha) [%] | efficacy (Phaedon cochleariae) [%] | further results
9 | CCS(=O)(=O)c1ccc(-n2cc(C(F)(F)F)cn2)nc1-c1nc2cc(C(F)(F)F)ccc2n1C [Example I-1, 2-{3-(Ethylsulphonyl)-6-[4-(trifluoromethyl)-1H-pyrazol-1-yl]pyridin-2-yl}-1-methyl-5-(trifluoromethyl)-1H-benzimidazole] | 4.16 | – | 100 | – | – | pest or weed control at 500 g/ha (Phaedon cochleariae): 100%
10 | CCS(=O)(=O)c1ccc(N)nc1-c1nc2cc(C(F)(F)F)ccc2n1C [Example I-3, 5-(Ethylsulphonyl)-6-[1-methyl-5-(trifluoromethyl)-1H-benzimidazol-2-yl]pyridin-2-amine] | 2.18 | – | – | 100 | – | pest or weed control at 500 g/ha (Phaedon cochleariae): 100%
11 | CCS(=O)(=O)c1ccc(NC(C)=O)nc1-c1nc2cc(C(F)(F)F)cnc2n1C [Example I-5, N-{5-(Ethylsulphonyl)-6-[3-methyl-6-(trifluoromethyl)-3H-imidazo[4,5-b]pyridin-2-yl]pyridin-2-yl}acetamide] | 2.3 | – | – | 90 | – | pest or weed control at 500 g/ha (Phaedon cochleariae): 100%; efficacy (Spodoptera frugiperda; application rate 100 g/ha): 100%
12 | CCS(=O)(=O)c1ccc(NC(C)=O)nc1-c1nc2cc3c(cc2n1C)OC(F)(F)O3 [Example I-7, N-[6-(2,2-Difluoro-7-methyl-[1,3]dioxolo[4,5-f]benzimidazol-6-yl)-5-ethylsulphonyl-2-pyridyl]acetamide] | 2.42 | – | 83 | – | – | pest or weed control at 500 g/ha (Phaedon cochleariae): 100%
13 | CCS(=O)(=O)c1ccc(-n2ccc(C(F)(F)F)n2)nc1-c1nc2cc(C(F)(F)F)ccc2n1C [Example I-9] | – | 4.21 | 100 | – | – | efficacy (kill) (Lucilia cuprina): 100%; efficacy (Myzus persicae; application rate 100 g/ha): 90%
14 | CCS(=O)(=O)c1ccc(NC(=O)C2CC2)nc1-c1nc2cc(C(F)(F)F)ccc2n1C [Example I-10] | – | 2.92 | 100 | – | 100 | efficacy (kill) (Ctenocephalides felis [2]): 100%; efficacy (Ctenocephalides felis [3]): 100%; efficacy (kill) (Lucilia cuprina): 95%
15 | CC[S+]([O-])c1ccc(-n2cc(C(F)(F)F)cn2)nc1-c1nc2cc(C(F)(F)F)cnc2n1C (centres unmarked) [Example I-12] | – | 4.23 | 100 | – | – | –
16 | CCS(=O)(=O)c1ccc(-n2cc(Cl)cn2)nc1-c1nc2cc(C(F)(F)F)cnc2n1C [Example I-14] | – | 3.9 | 100 | – | 100 | efficacy (kill) (Lucilia cuprina): 100%
17 | CCS(=O)(=O)c1ccc(NC(=O)C2CC2)nc1-c1nc2cc(C(F)(F)F)cnc2n1C [Example I-16] | – | 2.76 | 100 | 100 | 100 | –
18 | CCS(=O)(=O)c1ccc(-n2cc(Cl)cn2)nc1-c1cn2cnc(C(F)(F)F)cc2n1 [Example I-17, 2-[6-(4-Chloro-1H-pyrazol-1-yl)-3-(ethylsulphonyl)pyridin-2-yl]-7-(trifluoromethyl)imidazo[1,2-c]pyrimidine] | 3.46 | – | 100 | – | – | pest or weed control at 500 g/ha (Phaedon cochleariae): 100%
19 | CCS(=O)(=O)c1ccc(NC(=O)CSC)nc1-c1nc2cc(C(F)(F)F)cnc2n1C [Example I-20] | – | 2.79 | – | 90 | 100 | –
20 | CCS(=O)(=O)c1ccc(-n2nccn2)nc1-c1nc2cc(C(F)(F)F)cnc2n1C [Example I-23] | – | 2.66 | 100 | 90 | 100 | –
21 | CCS(=O)(=O)c1ccc(-n2cc(F)cn2)nc1-c1nc2cc(C(F)(F)F)cnc2n1C [Example I-24] | – | 3.55 | 100 | 90 | 100 | –
22 | CCS(=O)(=O)c1ccc(NC(=O)C(C)CSC)nc1-c1nc2cc(C(F)(F)F)cnc2n1C (centres unmarked) [Example I-25] | – | – | – | 90 | 100 | –
23 | CCS(=O)(=O)c1ccc(-n2ccc(C(F)(F)F)n2)nc1-c1cn2cnc(C(F)(F)F)cc2n1 [Example I-29] | – | – | 100 | – | 100 | –
24 | CCS(=O)(=O)c1ccc(-n2cc(F)cn2)nc1-c1cn2cnc(C(F)(F)F)cc2n1 [Example I-30] | – | – | – | – | – | log P (acidic) [4]: 3.13
25 | CCS(=O)(=O)c1ccc(N)nc1-c1cn2cnc(C(F)(F)F)cc2n1 [Example I-31] | – | 1.59 | 100 | 90 | 100 | –
26 | CCS(=O)(=O)c1ccc(NC(C)=O)nc1-c1cn2cnc(C(F)(F)F)cc2n1 [Example I-32] | – | 1.99 | 80 | 90 | 100 | –
